According to US4912132A, “Novel substances KS-504a, KS-504b, KS-504d and KS-504e and process for their preparation” (Kyowa Hakko Kogyo Co., Ltd., priority 1987, dated 1990):
“Also recorded” adds a separate entry of the source.

Legend:
rabbit aorta = assay: inhibition of contraction using extirpated blood vessel preparations (vasodilative activity); details: contraction by 20 mM KCl, added 30 minutes before; for inhibition at 10 µg/mL: final concentration 10.0 μg/ml
Procedure: The vosodilative activity of KS-504a, KS-504b and KS-504d is explained below, referring to Experimental Example 1 on inhibition of contraction using extirpated blood vessel preparations.
White bastard rabbits (male, 2-3 kg) were incised along the abdominal median line. The aorta was cut out with a length of about 2-2.5 cm from the venter, and spiral strips with a width of 3-4 mm were prepared therefrom. The strips were ligated with silk yarn at both ends, and the lower end was connected to a stationary rod, whereas the upper end was connected to a tension transducer (TB-612T, a product of Nippon Koden Co., Ltd.). The strips were suspended under an initial tension of 1.5 g. The strips were soaked in a Krebs-Henseleit solution at 32° C. whose composition in g/l was NaCl: 6.92, KCl: 0.35, MgSO4.7H2 O: 0.29, CaCl2.2H2 O: 0.37, KH2 PO4 : 0.16, NaHCO3 :2.1 and glucose: 1.0 in a Magnus tube, and a gas (95% O2 and 5% CO2) was introduced therein. After being stabilized for 1 to 2 hours, the preparations were used for the experiment. Potassium chloride was added to the Magnus tube to a final concentration of 20 mM. The resulting contraction reaction was recorded on a polygraph (AM-6000, a product of Nippon Koden Co., Ltd.) in equal scales through the tension transducer. KS-504a, KS-504b and KS-504d were each dissolved in dimethyl sulfoxide to a concentration of mg/ml, and the solutions were properly diluted with a Krebs-Henseleit solution and added to the Magnus tube 30 minutes before the application of the contracting
*The rate of inhibition of contraction was calculated according to the
Rate of inhibition of contraction (%)

[1] = solubility and stability in alkaline medium (physicochemical properties); details: for stability in basic substances / alkaline water: basic substances such as pyridine, monoethanolamine, and alkaline water; for Solubility: Also soluble in basic substances: soluble but readily decomposed; for Solubility: Soluble in: solvents listed as Soluble; for Solubility: Insoluble in: solvents listed as Insoluble
[2] = minimal lethal dose in mice; assay type: in vivo; details: p.o.
[3] = tested on: rat peritoneal exudate cells; assay: inhibition of histamine secretion from rat peritoneal exudate cells; assay type: cell-based; details: 10 min, phosphatidyl-L-serine and concanavalin A, 37° C, read-out: Rate of suppression of histamine secretion
Procedure: Influence on histamine secretion from rat peritoneal exudate cells
Rats with body weights of 150-180 g were killed under dry ether anesthesia by exsanguination, and mast cell medium prepared according to the method of Sullivan, et al. J. Immunol. 114, 1473 (1975)](hereinafter abbreviated as MCM, composition: 150mM NaCl, 3.7 mM KCl, 3 mM Na2 HPO4, 3.5 mM KH2 PO4, 1 mM CaCl2, 5.6 mM glucose, 0.1% bovine serum albumin, 10 U/ml heparin) was injected intraperitoneally into the animals at 6 ml/animal. The abdominal parts were massaged for two minutes, and then cut open to sample exuded solution in the abdominal cavities. The exuded solution collected from 6 rats was centrifuged a 100×g for 5 minutes at 4° C, and the precipitate was mixed with an appropriate amount of water-cooled MCM, and washed three times to prepare a cell suspension (peritoneal exudate cells, hereinafter abbreviated as PEC) containing mast cells at a final concentration of about 3×10^4 cells/ml. Identification of mast cells was carried out by staining intracellular granules with 0.05% Toluidine Blue. Then, 1 ml of the thus obtained PEC was preincubated at 37° C for 10 minutes, and then admixed with 0.1 ml of test solutions at various concentrations and incubated for 10 minutes. The incubated mixtures were further admixed with 0.1 ml each of 100 μg/ml phosphatidyl-L-serine and 1000 μg/ml concanavalin A, followed by incubation for 15 minutes. The reaction was discontinued by addition of 3 ml of ice-cooled physiological saline solution, and the mixture was centrifuged at 1100×g for 10 minutes at 4° C. to obtain a supernatant and a residue. Histamine contents of the supernatant and the residue were measured by fluorometry according to the method of Komatsu [Allergy 27, 67 (1978)].
The histamine secretion rate was defined by a percentage of histamine content in the supernatant to total histamine content in the cells. The rate of suppression of histamine secretion by the test solution was calculated according to the following equation.
Rate of suppression of secretion (%) [formula]

[4] = Oryctolagus cuniculus, read-out: Rate of inhibition of contraction

SMILES	inhibition at 10 µg/mL (rabbit aorta; [4])	inhibition at 30 µg/mL (rabbit aorta; Oryctolagus cuniculus, final concentration 30.0 μg/ml, read-out: Rate of inhibition of contraction)	stability in basic substances / alkaline water [1]	Solubility: Also soluble in basic substances [1]	Solubility: Soluble in [1]	Rate of inhibition of contraction (rabbit aorta; final concentration 1.0 μg/ml)	Rate of inhibition of contraction (rabbit aorta; final concentration 3.0 μg/ml)	Solubility: Insoluble in [1]	minimal lethal dose [2]	inhibition at 0.1 µg/mL (rabbit aorta; Oryctolagus cuniculus, final concentration 0.1 μg/ml, read-out: Rate of inhibition of contraction)	inhibition at 1 µg/mL (rabbit aorta; Oryctolagus cuniculus, final concentration 1.0 μg/ml, read-out: Rate of inhibition of contraction)	inhibition at 3 µg/mL (rabbit aorta; Oryctolagus cuniculus, final concentration 3.0 μg/ml, read-out: Rate of inhibition of contraction)	inhibition at 0.03 µg/mL ([3]; test solution 0.03 μg/ml)	inhibition at 0.1 µg/mL ([3]; test solution 0.1 μg/ml)	inhibition at 0.3 µg/mL ([3]; test solution 0.3 μg/ml)
OC1C(Cl)(Cl)C(=C(Cl)Cl)C(O)(C(Cl)Cl)C1(Cl)Cl (stereo not drawn) [KS-504d]	6.9%	91%	readily decomposed	pyridine, monoethanolamine, etc. and alkaline	acetone, ethyl acetate, acetonitrile; also recorded: benzene, methanol, chloroform; also recorded: hexane, water, acidic water	–	–	–	–	–	–	–	–	–	–
OC1C(Cl)(Cl)C(=C(Cl)Cl)C2(OC2Cl)C1(Cl)Cl (stereo not drawn) [KS-504b]	100%	–	readily decomposed	pyridine, monoethanolamine, etc. and alkaline	methanol, chloroform, acetone, ethyl; also recorded: acetate, acetonotrile; also recorded: dimethylsulfoxide	76%	80%	water, acidic water	–	–	–	–	–	–	–
OC1C(Cl)(Cl)C(=C(Cl)Cl)C2(OC2Cl)C1(Cl)Cl (stereo not drawn) [KS-504a]	–	–	readily decomposed	pyridine, monoethanolamine, etc. and alkaline	methanol, n-butanol, chloroform; also recorded: acetone, ethyl acetate; also recorded: dimethylformamide, dimethylsulfoxide; also recorded: benzene, acetic acid, hexane	–	–	water, acidic water	300 mg/kg	37%	59%	82%	–	–	–
O=CC1=C(C(Cl)(Cl)Cl)C(Cl)(Cl)C(O)C1(Cl)Cl (stereo not drawn) [KS-504e]	–	–	readily decomposed	pyridine, monoethanolamine, etc. and alkaline	methanol, chloroform, acetone, ethyl; also recorded: acetate, acetonitrile; also recorded: dimethylsulfoxide	–	–	water, acidic water	–	–	–	–	15%	62%	100%
